Test results taken from patent US12364709B2, “Bioavailable poly amines” (AMINEX THERAPEUTICS, INC., priority 2016, dated 2025).

Tests used:
[1] = Pharmacokinetic analysis of AMXT 1501 salt forms, single oral tablet dose; type: in vivo, beagle dogs
From the text: Following dose administration all the animals had serial blood collections. Table 18 provides pharmacokinetic data obtained using the various salt forms of AMXT 1501 following single PO dosing to dogs. In Table 18, Group 1 received the free base form of AMXT 1501, Group 2 received the dicholate salt of AMXT 1501, Group 3 received the phosphate salt form of AMXT 1501, and Group 4 received the dicaprate salt form of AMXT 1501. […] In Table 18, SD refers to standard deviation and CV % refers to coefficient of variability.

[2] = cited from earlier work
[3] = cited from earlier work; remark: listed apart in the source
[4] = 3 h intravenous infusions; cited from earlier work
[5] = single PO dose 16.0 mg/kg (2 x 80 mg tablets), plasma AMXT 1501
[6] = single PO dose 16.0 mg/kg (2 x 80 mg tablets), plasma AMXT 1501, 16 mg/kg
[7] = single PO dose 16.0 mg/kg, plasma AMXT 1501, 16 mg/kg
[8] = single PO dose 16.0 mg/kg, t=24 hours, plasma AMXT 1501, 16 mg/kg

CCCCCCCCCCCCCCCC(=O)NCCCC[C@@H](N)C(=O)NCCCNCCCCNCCCN [AMXT 1501 free base]
Tmax Median [1, 5]: 6.00 h | Tmax Min. [1, 5]: 6.00 h | Cmax Max. [1, 6]: 468 ng/mL | Cmax Mean [1, 6]: 250 ng/mL | Cmax Median [1, 6]: 250 ng/mL | Cmax Min. [1, 6]: 31.3 ng/mL | Tmax Max. [1, 6]: 12.0 h | Tmax Mean [1, 6]: 8.00 h | t1/2 Max. [1, 7]: 9.76 h | t1/2 Mean [1, 7]: 9.76 h | t1/2 Median [1, 7]: 9.76 h | t1/2 Min. [1, 7]: 9.76 h | AUC0-t Max. [1, 8]: 8450 ng·h/mL | AUC0-t Mean [1, 8]: 4710 ng·h/mL | AUC0-t Median [1, 8]: 5330 ng·h/mL | AUC0-t Min. [1, 8]: 363 ng·h/mL | inter-animal consistency of plasma AMXT 1501 levels ([1]; single oral delivery, FIGS. 5A-5D): variable drug levels

CCNCCCCNCCCCNCCCCNCC [DEHSpm, N1,N14-diethylhomospermine]
drug in plasma ([2]; 2-4 hrs. post-injection): not observed | objective response ([2]; solid tumor patients): None of the 15 patients

c1cc(CN2CCCNCCNCCCNCC2)ccc1CN1CCCNCCNCCCNCC1 [Mozobil]
clearance by ([3]; subcutaneous 40-360 μg/kg, healthy volunteers): ≤ 10 h | Plasma half-life ([3]; subcutaneous): 3 h

N=C(N)NCCCCCCC(=O)NC(O)C(=O)NCCCCNCCCN (stereo not shown) [deoxyspergualin]
half-life [4]: 1.8 h
